According to US6908591B2, “Methods for sterilizing biological materials by irradiation over a temperature gradient” (Clearant, Inc., priority 2002, dated 2005):

Experiments:
ACL collagen [1] = assay: SDS-PAGE of purified pepsin-digested collagen, ACL in high salt, low salt, neutral or low pH irradiated at -80° C. to 50 kGy (Example 10)
Procedure: This experiment was to determine whether high salt, low salt, neutral pH and low pH treated ACL will help to deliver stabilizers into ACL tissue to protect it from γ-irradiation at -80° C. with 50 kGy. 1. Prepared stock solution 2M sodium ascorbate (Spectrum […], Lot#QP0839) in water. Samples were prepared with the following: • a) DPBS • b) DPBS/200 mM sodium ascorbate • c) 0.5N HOAc • d) 0.5N HOAc/200 mM sodium ascorbate • e) 20 mM sodium phosphate pH 7.6 • f) 20 mM sodium phosphate pH 7.6/200 mM sodium ascorbate • g) 20 mM sodium phosphate pH 7.6/1M NaCl • h) 20 mM sodium phosphate pH 7.6/1M NaCl/200 mM sodium ascorbate. 2. These samples were irradiated with 0 and 50 kGy at 1.53 kGy/hr at NIST. 4. ACL were digested with pepsin and collagen purified by precipitating with salt.

type I collagen [2] = assay: SDS-PAGE of type I collagen irradiated to 45 kGy with stabilizers (Example 17); settings: gamma irradiation at -20° C.
Procedure: In this experiment, type I collagen at −20° C., −80° C. or freeze-dried at 4° C. were irradiated with gamma radiation to a total dose of 45 kGy in the presence of various stabilizers.
• 1M thiourea (Sigma T8656) in water; • 0.5M coumarin (Sigma CC4261) in ethanol; • 0.5M 0-coumaric acid (Sigma C4400) in ethanol; • 0.5M curcumin (Sigma C1386) in ethanol; • 1M L-cysteine (Sigma C6852) in water; • 1M 1,3-dimethyl-2-thiourea (Aldrich 534-13-4) in water; • 1M 2-mercaptoethylamine (Sigma M6500) in water; and • 1M 1,3-dimethylurea (Sigma D6254) in water. Phosphate buffer solution of 40 mM sodium phosphate and 100 mM NaCl; pH=7.66. Methods: The following samples were prepared to a final volume of 0.5 ml: • 1 mg/ml collagen in 5 mM acetic acid (control); • 1 mg/ml collagen+0.1 M coumaric acid; • 1 mg/ml collagen+5 mM curcumin; • 1 mg/ml collagen+0.1M L-cysteine; • 1 mg/ml collagen+0.1M 1,3-dimethyl-2-thiourea; • 1 mg/ml collagen+0.1M thiourea; • 1 mg/ml collagen+0.1M 2-mercaptoethylamine; and • 1 mg/ml collagen+0.1M 1,3-dimethylurea. The samples were irradiated as follows: • freeze-dried; temperature:4.7° C.; dose rate: 1.656 kGy/hr; total dose:45 kGy; • temperature:−20.5° C.; dose rate:1.537 kGy/hr; total does:45 kGy; and • […]; dose rate:1.530-1.528 kGy/hr;45 kGy. Following irradiation, the samples were analyzed by SDS-PAGE. Additionally, the samples were diluted 1:2 with water to give collagen concentrations of 0.5 mg/ml and a turbidity assay was performed to detect collagen fibril formation. Collagen fibril formation was initiated by adding 100 μl of phosphate buffer solution. The assay was done in triplicate using a microtiter plate reader at 340 nm wavelength.

type I collagen [3] = assay: Turbidity assay of collagen fibril formation after irradiation (Example 17); assay type: biochemical; settings: 45 kGy
Procedure: Phosphate buffer solution of 40 mM sodium phosphate and 100 mM NaCl; pH=7.66. Methods: […] Following irradiation, the samples were analyzed by SDS-PAGE. Additionally, the samples were diluted 1:2 with water to give collagen concentrations of 0.5 mg/ml and a turbidity assay was performed to detect collagen fibril formation. Collagen fibril formation was initiated by adding 100 μl of phosphate buffer solution. The assay was done in triplicate using a microtiter plate reader at 340 nm wavelength.

[4] = Procedure: • Tissue—Porcine Pulmonary Valve (PV) Heart valves were harvested prior to use and stored. • Tissue Preparation Reagents— • Polypropylene Glycol 400.
An additional 1 ml PPG was added and further water bath sonicated.
The 0.5M solution was soluble after a 20-30 minute water bath sonication.

porcine AV heart valves = assay: HPLC analysis of frozen AV heart valve cusps irradiated to 30 kGy at -20° C. (Example 3); settings: 1.584 kGy/hr
Procedure: In this experiment, frozen porcine AV heart valves soaked in various solvents were gamma irradiated to a total dose of 30 kGy at 1.584 kGy/hr at −20° C. 5. […] 6. Incubated tubes at 4° C. with nutating for ˜46 hours. 9. Frozen samples were then irradiated at −20° C. at a rate of 1.584 kGy/hr to a total dose of 30 kGy.

[5] = tested on: porcine ACL extractable proteins; assay: Guanidine HCl extracts of freeze dried ACL irradiated to 45 kGy: SDS-PAGE, BCA assay, densitometry (Example 6); settings: 45 kGy versus 0 kGy control
Procedure: Guanidine HCL extraction was done with 4 M GuHCl in 0.5 NaOAC pH 5.8 and 5 mM EDTA, 10 mM NEM, 5 mM Benzamidine and 1 mM PMSF to a final concentration of […] of extraction buffer. The samples were incubated at 4° C. on a nutator for 2 days.
A BCA assay was performed on the dialysates of the PPG+cocktail guanidine extracted samples to determine the total protein concentration in the samples.
Using BCA and SDS-PAGE on the PPG+Cocktail sample, guanidine extracts were evaluated based on SDS-PAGE of equal protein load. The protein concentrations were as follows:
Densitometry was performed on two different protein bands, as follows: […]

collagen = assay: Turbidity assay of liquid and gel collagen irradiated on dry ice (Example 18); assay type: biochemical; settings: frozen on dry ice, 48.73 to 53.38 kGy
Procedure: The samples were gamma irradiated at […] (frozen on dry ice) at dose rates of […] to a total dose of 48.73 to 53.38 kGy. The irradiated samples were analyzed by SDS-PAGE. Additionally, the samples were diluted 1:2 with water to give collagen concentrations of 0.5 mg/ml and a turbidity assay was performed to detect collagen fibril formation. Collagen fibril formation was initiated by adding 100 μl of phosphate buffer solution. The assay was done in triplicate using a microtiter plate reader at 340 nm wavelength.

ACL collagen [6] = assay: SDS-PAGE densitometry of purified pepsin-digested collagen, ACL in alcohols irradiated at -80° C. to 50 kGy (Example 11); settings: 1.53 kGy/hr
Procedure: This experiment was to determine whether alcohols can protect ACL tissue samples from γ-irradiation at −80° C. with 50 kGy. 1. […] 2. These samples were then incubated with different alcohols for 2 hr in a shaking incubator at 37° C. 3. After 2 hr incubation, these ACL tubes were decanted and fresh solutions were added to each ACL containing tubes and incubated overnight at −80° C. 4. These samples were irradiated with 0 and 50 kGy at 1.53 kGy/hr at NIST. 6. ACL were digested with pepsin and collagen purified by precipitating with salt. 8. Ran 10 μg of each purified pepsin-digested collages on 4-12% gel and quantified both alpha 1 and alpha 2 chains.

ACL collagen [7] = assay: Turbidity assay of collagen isolated from ACL irradiated in alcohols (Example 11); assay type: biochemical; settings: even at 0.5 mg/ml
Procedure: 7. Turbidity assay was performed for these collagens using at [1 mg/ml].
A turbidity assay was performed for the collagen isolated from these ACL samples. Correlation was found between the ACL collagen before and after irradiation.

[8] = tested on: Porcine Pulmonary Valve (PV) Heart valves; assay: HPLC and gel analysis of heart valve cusps gamma irradiated to 30 kGy at -20° C. (Example 1); settings: 1.584 kGy/hr
Procedure: In this experiment, porcine heart valves were gamma irradiated in the presence of polypropylene glycol 400 (PPG400) and, optionally, a scavenger, to a total dose of 30 kGy (1.584 kGy/hr at −20° C.).
5. 1.2 ml of PPG were added to two tubes (one of these tubes was designated 0 kGy and the other tube was designated 30 kGy): • 1.2 ml of 125 mM Trolox C in PPG were added to another two tubes • 1.2 ml of SCb stabilizer mixture—comprising of 1.5 ml 125 mM Trolox C, 300 μl 1 M Lipoic Acid, 600 μl 0.5 M Coumaric Acid and 600 μl 0.5 M n-Propyl Gallate (Final concentrations: 62.5 mM, 100 mM, 100 mM and 100 mM respectively) were added to the final two tubes.
6. Tubes were incubated at 4° C., with rocking for about 60 hours.
Samples were irradiated at a rate of 1.584 kGy/hr at −20° C. to a total dose of 30 kGy.
3. Samples were weighed, transferred to hydrolysis vials and 6 N HCl added at a volume of 20 mg tissue/ml HCl:
4. Samples were hydrolyzed at 110° C. for approximately 23 hours.

## CC(=O)O [0.5N HOAc, acetic acid]
ACL collagen [1]; without ascorbate, -80° C.
  yield of purified pepsin-digested collagen at 50 kGy: 73%

## CNC(=O)NC [1,2-dimethylurea, 1,3-dimethylurea]
Type I collagen [2]
  protective effect on collagen: less than that observed with thiourea and 1,3-dimethyl-2-thiourea

## CNC(=S)NC [1,3-dimethyl-2-thiourea]
Type I collagen [3]
  fibril formation after irradiation (turbidity assay): could form fibrils after irradiation
Type I collagen [3]; irradiated at -80° C.
  fibril formation after irradiation (turbidity assay): could form fibrils after irradiation

## NCCS [2-mercaptoethylamine]
Type I collagen [2]
  protective effect on collagen: less than that observed with thiourea and 1,3-dimethyl-2-thiourea
Type I collagen [3]; irradiated at -80° C.
  fibril formation after irradiation (turbidity assay): could form fibrils after irradiation

## O=C(O)/C=C/c1ccc(O)cc1 [Coumaric Acid]
[4]
  solubility of the stock solution in PPG: not 100% soluble

## C[S+](C)[O-] [DMSO, dimethyl sulfoxide]
Porcine AV heart valves; listed as 20% DMSO
  HPLC analysis, preservation of peaks after irradiation: reproduced these peaks more faithfully
Porcine AV heart valves; listed as 50% DMSO
  HPLC analysis, preservation of peaks after irradiation: slightly more effective

## OC[C@H]1O[C@H](O[C@H]2O[C@H](CO)[C@@H](O)[C@H](O)[C@H]2O)[C@H](O)[C@@H](O)[C@@H]1O [Trehalose, D(+)-trehalose]
[5]
  protection of guanidine extractable proteins by SDS-PAGE: least protection

## Cc1c(C)c2c(c(C)c1O)CCC(C)(C(=O)O)O2 (stereo not shown) [Trolox C, 6-hydroxy-2,5,7,8-tetramethylchroma-2 carboxylic acid]
[4]
  solubility of the stock solution in PPG: not soluble
  soluble at (in PPG): 125 mM

## O=C1O[C@H]([C@@H](O)CO)C([O-])=C1O.[Na+] [ascorbate, sodium ascorbate]
[5]
  protection of guanidine extractable proteins by SDS-PAGE: most promising results
collagen
  protection of gel or liquid collagen (turbidity assay): most effective
ACL collagen [1]; with ascorbate (200 mM) in 20 mM sodium phosphate pH 7.6 without salt, -80° C.
  yield of purified pepsin-digested collagen at 50 kGy: 75%
ACL collagen [1]; with ascorbate (200 mM) in 0.5N HOAc pH 3.4, -80° C.
  yield of purified pepsin-digested collagen at 50 kGy: 83%
ACL collagen [1]; with ascorbate (200 mM) in high salt (20 mM sodium phosphate pH 7.6/1M NaCl), -80° C.
  yield of purified pepsin-digested collagen at 50 kGy: 40%

## CC(O)C(C)O (stereo not shown) [butanediol, 2,3-butanediol]
ACL collagen [6]
  yield for 50 kGy ACL collagen based on the densitometry of alpha 1 and 2 chains: 88%

## COc1cc(/C=C/C(=O)CC(=O)/C=C/c2ccc(O)c(OC)c2)ccc1O [curcumin]
Type I collagen [2]
  protective effect on collagen: less than that observed with thiourea and 1,3-dimethyl-2-thiourea

## N[C@@H](CS)C(=O)O [cysteine, L-cysteine]
Type I collagen [2]
  protective effect on collagen: less than that observed with thiourea and 1,3-dimethyl-2-thiourea
Type I collagen [3]; irradiated at -80° C.
  fibril formation after irradiation (turbidity assay): could form fibrils after irradiation

## C[N+](C)(C)[C@@H](Cc1c[nH]c(=S)[nH]1)C(=O)[O-] [ergothionine]
[5]
  protection of guanidine extractable proteins by SDS-PAGE: good protection of proteins in the lower ⅔ of the gel

## CCO [ethanol]
ACL collagen [7]
  fibril formation in turbidity assay: could not form fibrils
ACL collagen [6]
  yield for 50 kGy ACL collagen based on the densitometry of alpha 1 and 2 chains: 77%

## N[C@@H](Cc1c[nH]cn1)C(=O)O [histidine, L-histidine]
[5]
  protection of guanidine extractable proteins by SDS-PAGE: most promising results

## CCCOC(=O)c1cc(O)c(O)c(O)c1 [n-Propyl Gallate]
[4]
  solubility of the stock solution in PPG: soluble

## CC(O)CO (stereo not shown) [propanediol, 1,2-propanediol]
ACL collagen [7]
  fibril formation in turbidity assay: could not form fibrils

## polypropylene glycol 400 [PPG 400]
[8]
  HPLC analysis, irradiated versus not irradiated heart valve: nearly identical
